Laboratory results published in patent publication US6506876B1, “LTA4 hydrolase inhibitor pharmaceutical compositions and methods of use” (G.D. Searle & Co., priority 1994, dated 2003).
pIC50: −log10 of the molar value. Structures can show the parent of a compound that is named as a salt. Where two headings read alike, the source gives them in different places.

Columns and labels:
[1] = molecular target: T1, recombinant human LTA4 hydrolase (rhLTA4H) (Homo sapiens, UniProt P09960); assay: Recombinant human LTA4 hydrolase assay for LTA4 hydrolase inhibitor activity; conditions: Recombinant Human LTA4 Hydrolase Assay IC50 LTA4H
T1 sequence (P09960 1-611): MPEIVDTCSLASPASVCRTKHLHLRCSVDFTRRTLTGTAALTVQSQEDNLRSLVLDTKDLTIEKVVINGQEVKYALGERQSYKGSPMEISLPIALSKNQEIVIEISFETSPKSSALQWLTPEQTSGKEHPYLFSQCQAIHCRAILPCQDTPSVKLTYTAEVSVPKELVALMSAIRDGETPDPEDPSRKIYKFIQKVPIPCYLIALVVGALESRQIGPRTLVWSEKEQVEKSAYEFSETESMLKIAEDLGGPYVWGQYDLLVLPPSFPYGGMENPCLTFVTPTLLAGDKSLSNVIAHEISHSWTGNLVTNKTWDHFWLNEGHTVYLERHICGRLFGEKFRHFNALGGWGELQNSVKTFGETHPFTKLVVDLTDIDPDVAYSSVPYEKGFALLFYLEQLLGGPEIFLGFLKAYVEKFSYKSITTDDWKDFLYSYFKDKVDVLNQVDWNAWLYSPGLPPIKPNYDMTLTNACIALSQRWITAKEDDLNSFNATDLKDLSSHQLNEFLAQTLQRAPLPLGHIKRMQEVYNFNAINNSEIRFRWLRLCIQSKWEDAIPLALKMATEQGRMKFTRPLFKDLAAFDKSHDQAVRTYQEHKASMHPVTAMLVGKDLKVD

[2] = test system: LTB4 production in human whole blood (LTA4 hydrolase); assay: LTB4 production by calcium ionophore stimulated human blood; format: cell-based; conditions: read-out: Inhibition of Calcium Ionophore-Induced LTB4 Production in Human Blood IC50 HWB
Protocol: LTB4 and Thromboxane Production by Calcium Ionophore Stimulated Human Blood for LTA4 Hydrolase Inhibitor Activity
One or more concentrations of the leukotriene A4 hydrolase inhibitor compounds being tested were prepared (diluted in DMSO) and 2 μl added and gently mixed with the diluted whole blood. After incubating for 15 minutes at 37° C. in a humidified incubator, calcium ionophore A23187 (Sigma Chemical Co., St. Louis, Mo.) was added to a final concentration of 20 mcg/ml and the incubation continued under the same conditions for an additional 10 minutes to allow LTB4 formation. The reaction was terminated by centrifugation (833 g, 10 minutes at 4° C.) and supernatant were analyzed for LTB4 and thromboxane by commercially available enzyme-linked immunoassays (Caymen Chemical Co., Ann Arbor, Mich.) according to the manufacturer's instructions. The IC50 of each test compound was determined from the amount of inhibition of LTB4 production as compared to an essentially identical assay in which no inhibitor compound was present.

[3] = test system: LTB4 production in mouse blood (LTA4 hydrolase); assay: Ex vivo LTB4 production by calcium ionophore stimulated mouse blood after oral dosing; format: in vivo
Protocol: Ex Vivo LTB4 and Thromboxane Production by Calcium Ionophore Stimulated Mouse Blood for LTA4 Hydrolase Inhibitor Activity
Leukotriene A4 hydrolase inhibitor compounds of the present invention were diluted to a predetermined concentration in phosphate buffered saline containing 2% DMSO and 1% Tween 80. The compounds were administered by oral gavage to adult male outbred mice weighing approximately 20-30 gm at a dose of 10 mg/kg body weight. (Compounds given at a dose of 50 mg/kg body weight are designtated in following Table by the symbol, *.) Sixty (60) minutes after administration of an LTA4 inhibitor compound of the invention, blood was collected (into heparin-containing tubes) from the retroorbital sinus. […] The mixture was incubated for 10 minutes at 37° C. in a humidified incubator. The reaction was terminated by centrifugation (833 g, 10 minutes at 4° C.). Supernatants were analyzed for LTB4 and thromboxane by commercially available enzyme-linked immunoassays (Caymen Chemical Co., Ann Arbor, Mich.] in accordance with the manufacturer's instructions. The percent inhibition was determined by comparison to animals treated identically except that the solution admininstered by oral gavage was devoid of inhibitor compound.

[4] = Homo sapiens, human whole blood, A23187
[5] = mouse, oral gavage, 1 hour after administration of 10 mg/kg; read-out: Murine Ex Vivo LTB4 Inhibition % I LTB4
[6] = Mus musculus, po, 1 h, read-out: Murine Ex Vivo LTB4 Inhibition % I LTB4
[7] = Mus musculus, po, 1 h; read-out: Murine Ex Vivo LTB4 Inhibition % I LTB4

Compound | pIC50 ([1]; recombinant hLTA4H) | inhibition in vivo at 10 mg/kg [3, 5] [%] | other results
c1ccc(Cc2ccc3c(c2)CC(Cn2cnc4ccncc42)O3)cc1 (centres unmarked) [358 A] | 5.81 |  | pIC50 ([2]; human whole blood, A23187): 6.82
c1ccc(Cc2cnc(OCCN3CCCC3)s2)cc1 [Example 76] |  |  | pIC50 [2, 4]: 5.46
Clc1cc(Cc2ccccc2)ccc1OCCN1CCCC1 [Example 113] |  |  | pIC50 [2, 4]: 5.70
Fc1cc(Cc2ccccc2)ccc1OCCN1CCCC1 [Example 115] |  |  | pIC50 [2, 4]: 6.72
COc1cccc(Cc2ccc(OCCN3CCCC3)cc2)c1 [Example 127] |  |  | pIC50 [2, 4]: 5.61
COC(=O)[C@@H]1CCCN1CCOc1ccc(Cc2ccccc2)cc1 [Example 225, Methyl 1-[2-[4-(Phenylmethyl)phenoxy]ethyl]-2S-pyrrolidine-2-carboxylate, monohydrochloride, hydrate] |  |  | pIC50 ([2]; Homo sapiens): 5.73
NC(=O)C1CCN(CC2CCc3cc(Cc4ccccc4)ccc3O2)CC1 (centres unmarked) [Example 293] | 6.32 | 93 | 
CC(=O)N1CCN(CC2Cc3cc(Cc4ccccc4)ccc3O2)CC1 (centres unmarked) [Example 294] | 6.96 | 57 | 
CNC(=O)C1CCN(CC2Cc3cc(Cc4ccccc4)ccc3O2)CC1 (centres unmarked) [Example 295] | 6.36 | 80 | 
CNC(=O)C1CCN(CC2Cc3cc(Oc4ccccc4)ccc3O2)CC1 (centres unmarked) [Example 296] | 6.15 | 72 | 
CCOC(=O)CC1CCN(CCOc2ccc(Cc3ccccc3)cc2)CC1 [Example 301] | 5.35 | 81 | 
COC(=O)C1(O)CCN(CCOc2ccc(Cc3ccccc3)cc2)CC1 [Example 305] | 8.00 | 42 | 
CCOC(=O)C1CCN(CCOc2ccc(Cc3cccc(F)c3)cc2)CC1 [Example 309] | 5.60 | 96 | 
CCOC(=O)C1CCN(CCOc2ccc(Cc3cccs3)cc2)CC1 [Example 310] | 6.03 | 96 | 
CC(=O)N[C@H]1C[C@@H](C)N(CCOc2ccc(Cc3ccccc3)cc2)[C@@H](C)C1 [Example 315] | 6.79 | 53 | 
C[C@@H]1C[C@H](C(N)=O)C[C@H](C)N1CCOc1ccc(Cc2ccccc2)cc1 [Example 316] | 7.30 | 85 | 
COC(=O)CCN(C)CCCOc1ccc(Cc2ccsc2)cc1 [Example 330] | 6.05 |  | inhibition in vivo at 10 mg/kg [3, 6]: 95%
NC(=O)N1CCN(CC2Cc3cc(Cc4ccccc4)ccc3O2)CC1 (centres unmarked) [Example 337] | 6.44 | 82 | 
c1ccc(Cc2ccc(OCCn3cnc4ccccc43)cc2)cc1 [Example 339] | 5.70 | 47 | 
[O-][n+]1cccc2c1ncn2CCOc1ccc(Cc2ccccc2)cc1 [Example 363] | 7.77 | 62 | 
[O-][n+]1ccc2c(c1)ncn2CCOc1ccc(Cc2ccccc2)cc1 [Example 365] |  |  | pIC50 [1]: 7.09; inhibition in vivo at 10 mg/kg [3, 6]: 72%
NC(=O)C1CCN(CCOc2ccc(Cc3ccccc3)s2)CC1 [Example 369] | 4.38 | 100 | 

Compound | pIC50 ([1]; recombinant hLTA4H) | inhibition in vivo at 10 mg/kg [3, 5] [%] | other results
CCOC(=O)C1CCN(CCOc2ccc(Cc3ccccc3)s2)CC1 [Example 370] | 4.23 |  | inhibition in vivo at 10 mg/kg [3, 7]: 96%
COC(=O)CCN(C)CCCOc1ccc(Cc2ccccc2)s1 [Example 375] | 6.05 |  | inhibition in vivo at 10 mg/kg [3, 7]: 67%
OCC1CCCN1CCOc1ccc(Cc2ccccc2)cc1 (centres unmarked) [Example 385] | 6.85 | 32 | 
OC1CCN(CCOc2ccc(Cc3ccccc3)cc2)C1 (centres unmarked) [Example 386] | 7.49 |  | inhibition in vivo at 10 mg/kg [3, 6]: 51%
CC1CCC(C)N1CCOc1ccc(Cc2ccccc2)cc1 (centres unmarked) [Example 399] | 7.00 | 30 | 
CC(CN1CCCCCC1)Oc1ccc(Cc2ccccc2)cc1 (centres unmarked) [Example 404] | 5.76 | 52 | 
CCC(CN1CCCC1)Oc1ccc(Cc2ccccc2)cc1 (centres unmarked) [Example 405] | 6.38 | 49 | 
c1ccc(Cc2ccc(OC(Cc3ccccc3)CN3CCCC3)cc2)cc1 (centres unmarked) [Example 406] | 6.30 | 46 | 
C#CC(CC(=O)OCC)NCCCOc1ccc(Cc2ccccc2)cc1 (centres unmarked) [Example 407] | 4.70 | 0 | 
COC(=O)CCN(C)CCCOc1ccc(Cc2ccccc2)cc1 [Example 413] | 7.37 | 86 | 
CC(C)(O)CCNCCCOc1ccc(Cc2ccccc2)cc1 [Example 416] | 6.39 | 31 | 
NNC(=O)C1CCN(CCOc2ccc(Cc3ccccc3)cc2)CC1 [Example 419] | 7.33 | 90 | 
CNC(=O)CCNCCCOc1ccc(Cc2ccccc2)cc1 [Example 422] | 7.00 | 37 | 
NC(=O)C1(O)CCN(CCOc2ccc(Cc3ccccc3)cc2)CC1 [Example 427] | 6.46 | 68 | 
O=C(Nc1ccccc1)OC[C@@H]1CCCN1CCOc1ccc(Cc2ccccc2)cc1 [Example 428] | 6.30 | 2 | 
O=C(O)C1CCN(CCOc2ccc(Cc3ccccc3)cc2)CC1 [Example 429] | 6.60 |  | inhibition in vivo at 10 mg/kg [3, 7]: 80%
CC(CN(C)CCCOc1ccc(Cc2ccccc2)cc1)C(=O)O (centres unmarked) [Example 432] | 6.85 | 85 | 
N/C(=N\O)C1CCN(CC2Cc3cc(Cc4ccccc4)ccc3O2)CC1 (centres unmarked) [Example 446] | 7.46 | 70 | 
CC1CC(c2nnn[nH]2)CCN1CCOc1ccc(Cc2ccccc2)cc1 (centres unmarked) [Example 451] | 8.22 | 90 | 
NC1CCN(CCOc2ccc(Cc3ccccc3)cc2)CC1 [Example 455] | 7.96 | 67 | 
c1ccc(Cc2ccc(OCCN3CC4CCC3C4)cc2)cc1 (centres unmarked) [Example 499] | 6.62 | 60 | 
c1ccc(Cc2ccc(OCCN3CC4CCC3CC4)cc2)cc1 [Example 500] | 6.85 | 53 | 
